Assay results published in patent EP1179050B1, “METHOD FOR THE PURIFICATION OF PROTEIN KINASE BY AFFINITY CHROMATOGRAPHY” (University of Tartu, priority 1999, dated 2000).
Read-outs that look alike come from different tables or passages of the source. *1 amine or outer side, *2 acyl side, *3 side chain or, on linkers, in order; H or OH if unused. Where a SMILES comes first, the peptide text is derived from it. [ ]: non-standard residue; d: D form. The star is where a group is joined. Adenosine(5'-uronoyl) = Nc1ncnc2c1ncn2[C@@H]1O[C@H](C(=O)*)[C@@H](O)[C@H]1O; X1 = Nc1ncnc2c1ncn2[C@@H]1O[C@H](C(=O)NC[C@H](N)C(=O)*)[C@@H](O)[C@H]1O; βAsp = O=C(O)[C@H](CC(=O)[*:2])N[*:1]; Dap = NC[C@H](N)C(=O)O

Tests used:
PKA = PKA (Mus musculus, UniProt P05132); conditions: literature values; read-out: Kd (affinity to PKA); cited from earlier work
Protein Kinase A [1] = target: T1, Protein Kinase A (Mus musculus, UniProt P05132); experiment: Inhibition constant for PKA (Table 3); format: biochemical
Protein Kinase A [2] = target: T1, Protein Kinase A; experiment: Inhibition constant for PKA (Table 3); format: biochemical; remark: listed apart in the source
Protein Kinase C = experiment: Inhibition constant for PKC (Table 3); format: biochemical
protein kinase CK2 = protein kinase CK2 (Rattus norvegicus, UniProt P19139); experiment: Protein kinase CK2 activity inhibition, casein substrate, [γ-32P]ATP phosphocellulose paper assay; format: biochemical; conditions: 30°C, pH 7.5, 1 mg/mL casein, 30 µM [γ-32P] ATP; n. i. means no inhibition at 100 µM concentration of ligand
protein kinase CK2, sequence (P19139 whole entry): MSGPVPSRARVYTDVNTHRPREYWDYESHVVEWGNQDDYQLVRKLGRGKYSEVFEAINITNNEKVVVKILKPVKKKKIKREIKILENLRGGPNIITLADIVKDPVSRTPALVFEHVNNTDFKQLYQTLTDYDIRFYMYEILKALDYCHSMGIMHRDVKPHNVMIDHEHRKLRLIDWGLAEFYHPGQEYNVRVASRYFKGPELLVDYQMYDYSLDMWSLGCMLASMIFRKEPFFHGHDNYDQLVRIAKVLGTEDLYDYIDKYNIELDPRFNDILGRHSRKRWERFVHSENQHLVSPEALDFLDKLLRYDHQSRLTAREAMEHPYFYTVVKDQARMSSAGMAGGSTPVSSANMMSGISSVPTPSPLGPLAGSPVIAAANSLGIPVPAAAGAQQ

[3] = target: catalytic subunit of murine PKA (Mus musculus, UniProt P05132); experiment: Protein kinase A (PKA) activity inhibition, [γ-32P]ATP phosphocellulose paper assay; format: biochemical
[4] = target: Ca^2+-dependent protein kinase (CDPK-1); experiment: Ca2+-dependent protein kinase (CDPK-1) activity inhibition, [γ-32P]ATP phosphocellulose paper assay; format: biochemical, maize; conditions: 30°C, pH 7.5, 50 µM substrate peptide, 30 µM [γ-32P]ATP
protein kinase CK1 = experiment: Protein kinase CK1 activity inhibition, casein substrate, [γ-32P]ATP phosphocellulose paper assay; format: biochemical, rat; conditions: 30°C, pH 7.5, 1 mg/mL casein, 30 µM [γ-32P] ATP
[5] = target: Protein kinase C β isoform (PKC); experiment: Protein kinase C β (PKC) activity inhibition, [γ-32P]ATP phosphocellulose paper assay; format: biochemical, pig; conditions: 30°C, pH 7.5, 15 µM substrate peptide, 30 µM [γ-32P] ATP

Nc1ncnc2c1ncn2[C@@H]1O[C@H](COP(=O)(O)OP(=O)(O)OP(=O)(O)O)[C@@H](O)[C@H]1O [ATP, adenosine triphosphate]
Kd (PKA): 25 µM

CC(=O)NCCCCCC(=O)N[C@@H](CCCN=C(N)N)C(=O)N[C@@H](CCCNC(=N)N)C(=O)N[C@@H](CCCNC(=N)N)C(=O)N[C@@H](CCCNC(=N)N)C(=O)N[C@@H](CCCNC(=N)N)C(=O)N[C@@H](CCCN=C(N)N)C(=O)O [Ac(amino-hexanoic acid)Arg6, Ac(Ahx)Arg6]
Ki (Protein Kinase A [1]): 27900 nM

Nc1ncnc2c1ncn2[C@@H]1O[C@H](CO)[C@@H](O)[C@H]1O [Adenosine]
Ki (Protein Kinase A [2]): 43100 nM
Ki (Protein Kinase C): 43200 nM

NC(N)=NCCC[C@H](NC(=O)[C@H](CCCN=C(N)N)NC(=O)[C@H](CCCN=C(N)N)NC(=O)[C@H](CCCN=C(N)N)NC(=O)[C@H](CCCN=C(N)N)NC(=O)[C@@H](N)CCCN=C(N)N)C(=O)O [Arg6]
Ki (Protein Kinase A [1]): 29500 nM

C[C@H](NC(=O)CCNC(=O)CCNC(=O)[C@H]1O[C@@H](n2cnc3c(N)ncnc32)[C@H](O)[C@@H]1O)C(=O)N[C@@H](CCCNC(=N)N)C(=O)N[C@@H](CCCNC(=N)N)C(=O)N[C@@H](CCCNC(=N)N)C(=O)N[C@@H](CCCNC(=N)N)C(=O)N[C@@H](CCCNC(=N)N)C(=O)N[C@@H](CCCNC(=N)N)C(=O)O [Inhibitor I, AdoC(β-Ala )2AlaArg6]
IC50 (protein kinase CK2): > 30 µM
IC50 [3]: 4.3 ± 0.3 µM

C[C@H](NC(=O)[C@@H](N)CNC(=O)[C@@H](N)CNC(=O)[C@H]1O[C@@H](n2cnc3c(N)ncnc32)[C@H](O)[C@@H]1O)C(=O)N[C@@H](CCCNC(=N)N)C(=O)N[C@@H](CCCNC(=N)N)C(=O)N[C@@H](CCCNC(=N)N)C(=O)N[C@@H](CCCNC(=N)N)C(=O)N[C@@H](CCCNC(=N)N)C(=O)N[C@@H](CCCNC(=N)N)C(=O)O [Inhibitor II, AdoC(Dpr)2AlaArg6] (H-[Dap](X1)ARRRRRR-OH; C-terminus assumed)
IC50 [4]: 31 ± 3 µM
IC50 (protein kinase CK1): 5.6 ± 0.4 µM

C[C@H](NC(=O)C[C@H](NC(=O)C[C@H](NC(=O)[C@H]1O[C@@H](n2cnc3c(N)ncnc32)[C@H](O)[C@@H]1O)C(=O)O)C(=O)O)C(=O)N[C@@H](CCCNC(=N)N)C(=O)N[C@@H](CCCNC(=N)N)C(=O)N[C@@H](CCCNC(=N)N)C(=O)N[C@@H](CCCNC(=N)N)C(=O)N[C@@H](CCCNC(=N)N)C(=O)N[C@@H](CCCNC(=N)N)C(=O)O [Inhibitor III, AdoC(β-Asp)2AlaArg6] ({Adenosine(5'-uronoyl)-βAsp-βAsp}-ARRRRRR-OH; C-terminus assumed)
IC50 [5]: 27 ± 2 µM
IC50 [4]: > 50 µM
IC50 (protein kinase CK1): > 30 µM

N=C(N)NCCC[C@H](NC(=O)[C@H](CCCNC(=N)N)NC(=O)[C@H](CCCNC(=N)N)NC(=O)[C@H](CCCNC(=N)N)NC(=O)[C@H](CCCNC(=N)N)NC(=O)[C@H](CCCNC(=N)N)NC(=O)CNC(=O)[C@H]1O[C@@H](n2cnc3c(N)ncnc32)[C@H](O)[C@@H]1O)C(=O)O [Inhibitor IV, AdoCGlyArg6]
IC50 (protein kinase CK2): > 30 µM
IC50 [3]: 4 ± 0.2 µM

N=C(N)NCCC[C@H](NC(=O)[C@H](CCCNC(=N)N)NC(=O)[C@H](CCCNC(=N)N)NC(=O)[C@H](CCCNC(=N)N)NC(=O)[C@H](CCCNC(=N)N)NC(=O)[C@H](CCCNC(=N)N)NC(=O)CCCCCCCCCCNC(=O)[C@H]1O[C@@H](n2cnc3c(N)ncnc32)[C@H](O)[C@@H]1O)C(=O)O [Inhibitor IX, AdoC(Aun)Arg6]
IC50 (µM) CK2 (protein kinase CK2): n. i.^f)

N=C(N)NCCC[C@H](NC(=O)[C@H](CCCNC(=N)N)NC(=O)[C@H](CCCNC(=N)N)NC(=O)[C@H](CCCNC(=N)N)NC(=O)[C@H](CCCNC(=N)N)NC(=O)[C@H](CCCNC(=N)N)NC(=O)CCNC(=O)[C@H]1O[C@@H](n2cnc3c(N)ncnc32)[C@H](O)[C@@H]1O)C(=O)O [Inhibitor V, AdoC(β-Ala)Arg6]
IC50 (µM) CK2 (protein kinase CK2): n. i.^f)
IC50 [3]: 1.8 ± 0.1 µM

N=C(N)NCCC[C@H](NC(=O)[C@H](CCCNC(=N)N)NC(=O)[C@H](CCCNC(=N)N)NC(=O)[C@H](CCCNC(=N)N)NC(=O)[C@H](CCCNC(=N)N)NC(=O)[C@H](CCCNC(=N)N)NC(=O)CCCNC(=O)[C@H]1O[C@@H](n2cnc3c(N)ncnc32)[C@H](O)[C@@H]1O)C(=O)O [Inhibitor VI, AdoC(GABA)Arg6]
IC50 (protein kinase CK2): > 30 µM
IC50 [3]: 1.3 ± 0.2 µM

N=C(N)NCCC[C@H](NC(=O)[C@H](CCCNC(=N)N)NC(=O)[C@H](CCCNC(=N)N)NC(=O)[C@H](CCCNC(=N)N)NC(=O)[C@H](CCCNC(=N)N)NC(=O)[C@H](CCCNC(=N)N)NC(=O)CCCCCNC(=O)[C@H]1O[C@@H](n2cnc3c(N)ncnc32)[C@H](O)[C@@H]1O)C(=O)O [Inhibitor VII, AdoC(Ahx)Arg6]
IC50 (protein kinase CK2): > 30 µM
Ki (Protein Kinase A [1]): 40.1 nM
IC50 [3]: 0.12 ± 0.02 µM

N=C(N)NCCC[C@H](NC(=O)[C@H](CCCNC(=N)N)NC(=O)[C@H](CCCNC(=N)N)NC(=O)[C@H](CCCNC(=N)N)NC(=O)[C@H](CCCNC(=N)N)NC(=O)[C@H](CCCNC(=N)N)NC(=O)CCCCCCCNC(=O)[C@H]1O[C@@H](n2cnc3c(N)ncnc32)[C@H](O)[C@@H]1O)C(=O)O [Inhibitor VIII, AdoC(Aoc)Arg6]
IC50 (protein kinase CK2): > 30 µM
IC50 [3]: 0.24 ± 0.02 µM

Nc1ncnc2nc[nH]c12 [adenine]
Kd (PKA): 30 µM
